Assay results published in patent US5541175A, “Cephalosporin antibiotics” (Lucky, Ltd., priority 1993, dated 1996).
Values after ≈ are worked out from the molar mass of the structure shown. Read-outs that look alike come from different tables or passages of the source.

Legend:
Assay in all cases: Minimum inhibitory concentration (agar 2-fold dilution)
Assay type in all cases: cell-based
[1] = test system: Pseudomonas aeruginosa 6065; details: Pseudomonas aeruginosa; P. aeruginosa 6065; Muller-Hinton agar, 37° C., 20 hours; read-out: Minimum Inhibitory Concentration
Method: (§1) The minimum inhibitory concentration was determined by diluting the test compounds according to 2-fold dilution, suspending them in Muller-Hinton agar medium, inoculating 2 μl of the suspension containing the test strains having 10^7 CFU (Colony Forming Unit) per 1 ml into the medium and then culturing the test strains at 37° C. for 20 hours.

[2] = test system: Citrobacter diversus 2046E; details: Citrobacter koseri; C. diversus 2046E; Muller-Hinton agar, 37° C., 20 hours; read-out: Minimum Inhibitory Concentration
Method: as §1

[3] = test system: Escherichia coli TEM9 2639E; details: TEM92639E, 20 h, read-out: Minimum Inhibitory Concentration
Method: as §1

[4] = test system: Escherichia coli TEM1 1193E; details: TEM11193E, 20 h, read-out: Minimum Inhibitory Concentration
Method: as §1

[5] = test system: Staphylococcus aureus 241; details: Staphylococcus aureus; S. aureus 241; Muller-Hinton agar, 37° C., 20 hours; read-out: Minimum Inhibitory Concentration
Method: as §1

[6] = test system: Escherichia coli TEM7 3457E; details: TEM73457E, 20 h, read-out: Minimum Inhibitory Concentration
Method: as §1

[7] = test system: Staphylococcus aureus giorgio; details: S. aureus giorgio, Muller-Hinton agar, 37° C., 20 hours, read-out: Minimum Inhibitory Concentration
Method: as §1

[8] = test system: Staphylococcus aureus epidermidis 887E; details: S. aureus epidermidis 887E, Muller-Hinton agar, 37° C., 20 hours, read-out: Minimum Inhibitory Concentration
Method: as §1

[9] = test system: Acinetobacter calcoaceticus 15473A; details: A. calcoaceticus 15473A, Muller-Hinton agar, 37° C., 20 hours, read-out: Minimum Inhibitory Concentration
Method: as §1

[10] = test system: Staphylococcus aureus 6538P; details: read-out: Minimum Inhibitory Concentration
Method: as §1

[11] = test system: Serratia marcescens 1826E; details: S. marcescens 1826E, Muller-Hinton agar, 37° C., 20 hours, read-out: Minimum Inhibitory Concentration
Method: as §1

Enterobacter cloacae P99 = details: P99, 20 h, read-out: Minimum Inhibitory Concentration
Method: as §1

[12] = test system: Klebsiella aerogenes K1 + 1082E; details: 20 h, read-out: Minimum Inhibitory Concentration
Method: as §1

[13] = test system: Escherichia coli TEM5 3739E; details: TEM53739E, 20 h, read-out: Minimum Inhibitory Concentration
Method: as §1

Proteus vulgaris 6059A = details: P. vulgaris 6059A, Muller-Hinton agar, 37° C., 20 hours, read-out: Minimum Inhibitory Concentration
Method: as §1

Escherichia coli 3190Y = details: E. coli 3190Y, Muller-Hinton agar, 37° C., 20 hours, read-out: Minimum Inhibitory Concentration
Method: as §1

Staphylococcus aureus 77 = details: read-out: Minimum Inhibitory Concentration
Method: as §1

[14] = test system: Escherichia coli TEM3 3455E; details: TEM33455E, 20 h, read-out: Minimum Inhibitory Concentration
Method: as §1

[15] = test system: Pseudomonas aeruginosa 10145; details: Pseudomonas aeruginosa; P. aeruginosa 10145; Muller-Hinton agar, 37° C., 20 hours; read-out: Minimum Inhibitory Concentration
Method: as §1

[16] = test system: Enterobacter cloacae IND + VE 1194E; details: E. cloacae IND + VE 1194E, Muller-Hinton agar, 37° C., 20 hours, read-out: Minimum Inhibitory Concentration
Method: as §1

[17] = test system: Streptococcus faecalis 29212A; details: Enterococcus faecalis; S. faecalis 29212A; Muller-Hinton agar, 37° C., 20 hours; read-out: Minimum Inhibitory Concentration
Method: as §1

[18] = test system: Salmonella typhimurium 14028A; details: Salmonella enterica; S. typhimurium 14028A; Muller-Hinton agar, 37° C., 20 hours; read-out: Minimum Inhibitory Concentration
Method: as §1

Escherichia coli 10536 = details: read-out: Minimum Inhibitory Concentration
Method: as §1

Escherichia coli 851E = details: E. coli 851E, Muller-Hinton agar, 37° C., 20 hours
Method: as §1

[19] = test system: Pseudomonas aeruginosa 1912E; details: P. aeruginosa 1912E, Muller-Hinton agar, 37° C., 20 hours, read-out: Minimum Inhibitory Concentration
Method: as §1

[20] = test system: Klebsiella aerogenes SHV-1 1976E; details: SHV11976E, K. aerogenes SHV-1 1976E, Muller-Hinton agar, 37° C., 20 hours
Method: as §1

SMILES	MIC [1] [µg/mL]	MIC [2] [µg/mL]	MIC [3] [µg/mL]	MIC [4] [µg/mL]	MIC [5] [µg/mL]	MIC [6] [µg/mL]	MIC [7] [µg/mL]	MIC [8] [µg/mL]	MIC [9] [µg/mL]	MIC [11] [µg/mL]	MIC (Enterobacter cloacae P99) [µg/mL]	MIC [12] [µg/mL]	MIC [13] [µg/mL]	MIC (Proteus vulgaris 6059A) [µg/mL]	MIC (Escherichia coli 3190Y) [µg/mL]	MIC [14] [µg/mL]	MIC [15] [µg/mL]	MIC [16] [µg/mL]	MIC [17] [µg/mL]	MIC [18] [µg/mL]	further results
Nc1cc(N)[n+](C/C=C/C2=C(C(=O)[O-])N3C(=O)[C@@H](NC(=O)/C(=N\O[C@@H](C(=O)O)c4ccc(O)c(O)c4)c4csc(N)n4)[C@H]3SC2)cn1 [Compound I-1b, 7-[(Z)-2-(2-aminothiazol-4-yl)-2-(α-carboxy-3,4-dihydroxybenzyloxyimino)acetamido]-3-[(E)-3-(4,6-diaminopyrimidinium-1-yl)-1-propen-1-yl]-3-cephem-4-carboxylate]	32 (≈ 46.8 µM)	16 (≈ 23.4 µM)	2 (≈ 2.93 µM)	0.25 (≈ 0.366 µM)	128 (≈ 187 µM)	0.25 (≈ 0.366 µM)	0.5 (≈ 0.731 µM)	64 (≈ 93.6 µM)	4 (≈ 5.85 µM)	2 (≈ 2.93 µM)	128 (≈ 187 µM)	2 (≈ 2.93 µM)	2 (≈ 2.93 µM)	0.5 (≈ 0.731 µM)	0.13 (≈ 0.19 µM)	0.5 (≈ 0.731 µM)	32 (≈ 46.8 µM)	64	8 (≈ 11.7 µM)	0.13 (≈ 0.19 µM)	MIC ([10]; S. aureus 6538P, Muller-Hinton agar, 37° C., 20 hours): 0.5 µg/mL (≈ 0.731 µM); MIC (Staphylococcus aureus 77; Staphylococcus aureus, S. aureus 77, Muller-Hinton agar, 37° C., 20 hours): 2 µg/mL (≈ 2.93 µM); MIC (Escherichia coli 10536; Escherichia coli, 10536, 20 h): 0.13 µg/mL (≈ 0.19 µM); MIC (Escherichia coli 851E): 0.13 µg/mL (≈ 0.19 µM); MIC [19]: 64 µg/mL (≈ 93.6 µM); MIC [20]: 1 µg/mL (≈ 1.46 µM)
Nc1nc(/C(=N/O[C@@H](C(=O)O)c2ccc(O)c(O)c2)C(=O)N[C@@H]2C(=O)N3C(C(=O)[O-])=C(/C=C/C[n+]4cnc(N)c(N)c4N)CS[C@H]23)cs1 [Compound I-5b, 7-[(Z)-2-(2-aminothiazol-4-yl)-2-(α-carboxy-3,4-dihydroxybenzyloxyimino)acetamido]-3-[(E)-3-(4,5,6-triaminopyrimidinium-1-yl)-1-propen-1-yl]-3-cephem-4-carboxylate]	8 (≈ 11.4 µM)	4 (≈ 5.72 µM)	1 (≈ 1.43 µM)	0.25 (≈ 0.358 µM)	128 (≈ 183 µM)	0.25 (≈ 0.358 µM)	0.5 (≈ 0.716 µM)	64 (≈ 91.6 µM)	1 (≈ 1.43 µM)	2 (≈ 2.86 µM)	16 (≈ 22.9 µM)	1 (≈ 1.43 µM)	1 (≈ 1.43 µM)	1 (≈ 1.43 µM)	0.13 (≈ 0.186 µM)	0.063 (≈ 0.0902 µM)	2 (≈ 2.86 µM)	8	8 (≈ 11.4 µM)	0.031 (≈ 0.0444 µM)	MIC ([10]; 6538P, 20 h): 0.5 µg/mL (≈ 0.716 µM); MIC (Staphylococcus aureus 77; Staphylococcus aureus, 77, 20 h): 2 µg/mL (≈ 2.86 µM); MIC (Escherichia coli 10536; Escherichia coli, E. coli 10536, Muller-Hinton agar, 37° C., 20 hours): 0.13 µg/mL (≈ 0.186 µM); MIC (Escherichia coli 851E): 0.13 µg/mL (≈ 0.186 µM); MIC [19]: 1 µg/mL (≈ 1.43 µM); MIC [20]: 1 µg/mL (≈ 1.43 µM)
